Laboratory results as given in US11434226B2, “Salt and polymorph of benzopyrimidinone compound and pharmaceutical composition and use thereof” (SHANGHAI INSTITUTE OF MATERIA MEDICA, CHINESE ACADEMY OF …, priority 2017, dated 2022).
“Also recorded” adds a separate entry of the source. Counter-ions that a name gives are not always drawn. Like-named read-outs stand apart in the source and are kept apart here.

Columns and labels:
[1] = Comparison of solubility of compound Z and its salts; type: physicochemical
Description: An appropriate amount of the sample was weighed in a glass test tube and a selected solvent was gradually added therein to observe the clarification.

[2] = Chemical stability by stress testing (high temperature, high humidity, illumination); type: physicochemical; details: for stability, in words: high temperature, light and high humidity conditions
Description: The chemical stability of the basic compound Z prepared in Example 16 and the salts of compound Z prepared in Examples 5, 9 and 10 was compared through a stress testing, the results were shown in the table below: […]

[3] = Hygroscopicity of solid forms of hydrochlorate of compound Z; type: physicochemical
Description: (§1) The properties of crystalline form A prepared in Examples 11 or 12, crystalline form B prepared in Example 14 and amorphous substance prepared in Example 15 were compared, the results were shown in the following table 6.

[4] = Comparison of compound appearance and characters (odor); type: physicochemical
Description: The appearance and characters of the basic compound Z prepared in Example 16 and different salts of compound Z prepared in Examples 1-2, 5-6, 9 were observed, the results are shown in the table below: […]

[5] = In vivo pharmacokinetic experiment in rats; details: by gavage
Method: The in vivo pharmacokinetic experiment in rats were carried out for the basic compound Z prepared in Example 16, the hydrochlorate of compound Z prepared in Example 9, the succinate of compound Z prepared in Example 2, the fumarate of compound Z prepared in Example 3 (administered by gavage, dose 3 mg/kg), the results were shown in FIG. 8 of the specification.

[6] = Crystal stability of solid forms of hydrochlorate of compound Z; type: physicochemical
Description: as §1

[7] = selected solvent of pH 2 (composition not named), simulated gastric fluid, thermodynamic from solid, pH = 2, read-out: Solubility
[8] = selected solvent of pH 4.5 (composition not named), aqueous buffer, thermodynamic from solid, pH = 4.5, read-out: Solubility
[9] = selected solvent of pH 6.8 (composition not named), aqueous buffer, thermodynamic from solid, pH = 6.8, read-out: Solubility
[10] = thermodynamic from solid, water (deionized), read-out: Solubility
[11] = High humidity (25° C., 92.5% RH), 5 days
[12] = High humidity (25° C., 92.5% RH), 10 days
[13] = high temperature (60° C.), 5 days
[14] = high temperature (60° C.), 10 days
[15] = illumination (4500 lx ± 500 lx), 5 days
[16] = illumination (4500 lx ± 500 lx), 10 days

Row | Compound | solubility [1, 7] | solubility [1, 8] | solubility [1, 9] | solubility [1, 10] | characters ([2]; 0 days) | purity ([2]; 0 days) | characters [2, 11] | purity [2, 11] | characters [2, 12] | purity [2, 12] | characters [2, 13] | purity [2, 13] | characters [2, 14] | purity [2, 14] | characters [2, 15] | purity [2, 15] | characters [2, 16] | odor [4] | further results
1 | CCCOc1ccc(NC(=O)CN2CCN(C)CC2)cc1-c1nc(CC)c(CC)c(=O)[nH]1.O=S(=O)(O)O [sulfate of compound Z, 5,6-diethyl-2-[2-n-propoxy-5-(2-(4-methylpiperazin-1-yl)acetamido)phenyl]pyrimidin-4(3H)-one Sulfate] | > 20.2 mg/mL | > 25.6 mg/mL | > 24.4 mg/mL | > 20.6 mg/mL | Yellow | 99.63% | Yellow powder | 99.64% | Yellow powder | 99.62% | Yellow | 99.59% | Yellow | 99.64% | Yellow | 97.43% | Gray-yellow | – | purity [2, 16]: 96.99%
2 | CCCOc1ccc(NC(=O)CN2CCN(C)CC2)cc1-c1nc(CC)c(CC)c(=O)[nH]1.Cl [form B, 5,6-diethyl-2-[2-n-propoxy-5-(2-(4-methylpiperazin-1-yl)acetamido)phenyl]pyrimidin-4(3H)-one Hydrochlorate (Form B)] | – | – | – | – | – | – | – | – | – | – | – | – | – | – | – | – | – | – | hygroscopicity, water absorption ([3]; 65% RH): 65% RH, water absorption 3.58%; hygroscopicity, water absorption ([3]; 80% RH): 80% RH, water absorption 11.3%
3 | CCCOc1ccc(NC(=O)CN2CCN(C)CC2)cc1-c1nc(CC)c(CC)c(=O)[nH]1.Cl [Amorphous, 5,6-diethyl-2-[2-n-propoxy-5-(2-(4-methylpiperazin-1-yl)acetamido)phenyl]pyrimidin-4(3H)-one Hydrochloride (Amorphous)] | – | – | – | – | – | – | – | – | – | – | – | – | – | – | – | – | – | – | hygroscopicity, water absorption ([3]; 65% RH): 65% RH, water absorption 16.53%; hygroscopicity, water absorption ([3]; 80% RH): 80% RH, water absorption 6.74%
4 | CCCOc1ccc(NC(=O)CN2CCN(C)CC2)cc1-c1nc(CC)c(CC)c(=O)[nH]1 [compound Z, 5,6-diethyl-2-[2-n-propoxy-5-(2-(4-methylpiperazin-1-yl)acetamido)phenyl]pyrimidin-4(3H)-one] | 5.3 mg/mL | 38.1 mg/mL | 1.7 mg/mL | 1.5 mg/mL | White | 99.6% | White | 99.64% | White | 99.53% | White | 99.69% | White | 99.36% | Yellowish | 99.37% | Yellowish | Pungent odor | solubility, in words [1]: poor solubility in water; also recorded: significantly lower; stability, in words [2]: relatively poor
5 | CCCOc1ccc(NC(=O)CN2CCN(C)CC2)cc1-c1nc(CC)c(CC)c(=O)[nH]1.Cl [hydrochlorate of compound Z, 5,6-diethyl-2-[2-n-propoxy-5-(2-(4-methylpiperazin-1-yl)acetamido)phenyl]pyrimidine-4(3H)-one Hydrochlorate] | > 22.8 mg/mL | > 23.6 mg/mL | > 26.6 mg/mL | > 25 mg/mL | White | 99.77% | White | 99.73% | White | 99.77% | White | 99.65% | White | 99.71% | White | 99.79% | White | No bad smell | solubility, in words [1]: good solubility; stability, in words [2]: high stability; stability, in words ([2]; listed as hydrochlorate): stable; purity [2, 16]: 99.72%; oral bioavailability, in words ([5]; 3 mg/kg): high oral bioavailability; in vivo pharmacokinetic properties (plasma concentration-time curve, FIG. 8), in words ([5]; dose 3 mg/kg, compared with compound Z): significantly better
6 | CCCOc1ccc(NC(=O)CN2CCN(C)CC2)cc1-c1nc(CC)c(CC)c(=O)[nH]1.O=C(O)/C=C\C(=O)O [maleate of compound Z, 5,6-diethyl-2-[2-n-propoxy-5-(2-(4-methylpiperazin-1-yl)acetamido)phenyl]pyrimidine-4(3H)-one Maleate] | 6.1 mg/mL | 21.4 mg/mL | 46.4 mg/mL | 5.8 mg/mL | – | – | – | – | – | – | – | – | – | – | – | – | – | No bad smell | –
7 | CCCOc1ccc(NC(=O)CN2CCN(C)CC2)cc1-c1nc(CC)c(CC)c(=O)[nH]1 [form A, 5,6-diethyl-2-[2-n-propoxy-5-(2-(4-methylpiperazin-1-yl)acetamido)phenyl]pyrimidin-4(3H)-one hydrochloride monohydrate (Form A)] | – | – | – | – | – | – | – | – | – | – | – | – | – | – | – | – | – | – | hygroscopicity, in words [3]: low hygroscopicity; hygroscopicity, water absorption ([3]; 65% RH): 65% RH, water absorption 2.48%; hygroscopicity, water absorption ([3]; 80% RH): 80% RH, water absorption 3.41%; Crystal stability [6]: stable; Crystal stability ([6]; listed as crystal form A): stable properties
8 | CCCOc1ccc(NC(=O)CN2CCN(C)CC2)cc1-c1nc(CC)c(CC)c(=O)[nH]1.O=C(O)/C=C/C(=O)O [fumarate of compound Z, 5,6-diethyl-2-[2-n-propoxy-5-(2-(4-methylpiperazin-1-yl)acetamido)phenyl]pyrimidin-4(3H)-one Fumarate] | > 24.2 mg/mL | > 20.2 mg/mL | > 27 mg/mL | > 26.6 mg/mL | – | – | – | – | – | – | – | – | – | – | – | – | – | – | –
9 | CCCOc1ccc(NC(=O)CN2CCN(C)CC2)cc1-c1nc(CC)c(CC)c(=O)[nH]1.O=C(O)C(O)C(O)C(=O)O [tartrate of compound Z, 5,6-diethyl-2-[2-n-propoxy-5-(2-(4-methylpiperazin-1-yl)acetamido)phenyl]pyrimidin-4(3H)-one Tartrate] | > 219 mg/mL | > 155 mg/mL | > 130 mg/mL | > 153 mg/mL | – | – | – | – | – | – | – | – | – | – | – | – | – | No bad smell | –
10 | CCCOc1ccc(NC(=O)CN2CCN(C)CC2)cc1-c1nc(CC)c(CC)c(=O)[nH]1.O=C(O)[C@@H](O)[C@H](O)[C@H](O)[C@@H](O)C(=O)O [mucate of compound Z, 5,6-diethyl-2-[2-n-propoxy-5-(2-(4-methylpiperazin-1-yl)acetamido)phenyl]pyrimidin-4(3H)-one Mucate] | – | – | – | – | – | – | – | – | – | – | – | – | – | – | – | – | – | – | solubility ([1]; pH = 2): 36.3 mg/mL; solubility ([1]; pH = 4.5): 62.7 mg/mL; solubility ([1]; pH = 6.8): 39.0 mg/mL; solubility ([1]; water (deionized)): 10.6 mg/mL
11 | CC(=O)O.CCCOc1ccc(NC(=O)CN2CCN(C)CC2)cc1-c1nc(CC)c(CC)c(=O)[nH]1 [acetate of compound Z, 5,6-diethyl-2-[2-n-propoxy-5-(2-(4-methylpiperazin-1-yl)acetamido)phenyl]pyrimidin-4(3H)-one Acetate] | 35.8 mg/mL | > 102 mg/mL | 22.6 mg/mL | 14 mg/mL | – | – | – | – | – | – | – | – | – | – | – | – | – | – | –
12 | CCCOc1ccc(NC(=O)CN2CCN(C)CC2)cc1-c1nc(CC)c(CC)c(=O)[nH]1.CS(=O)(=O)O [methanesulfonate of compound Z, 5,6-diethyl-2-[2-n-propoxy-5-(2-(4-methylpiperazin-1-yl)acetamido)phenyl]pyrimidin-4(3H)-one Methanesulfonate] | > 22.4 mg/mL | > 25.4 mg/mL | > 23.2 mg/mL | > 23.8 mg/mL | White | 99.66% | Yellow | 99.54% | Yellow | 99.55% | White | 99.54% | White | 99.49% | White | 99.72% | White | No bad smell | purity [2, 16]: 99.46%
13 | CCCOc1ccc(NC(=O)CN2CCN(C)CC2)cc1-c1nc(CC)c(CC)c(=O)[nH]1.O=C(O)CCC(=O)O [succinate of compound Z, 5,6-diethyl-2-[2-n-propoxy-5-(2-(4-methylpiperazin-1-yl)acetamido)phenyl]pyrimidin-4(3H)-one Succinate] | > 20.8 mg/mL | > 22 mg/mL | > 20.8 mg/mL | > 24.8 mg/mL | – | – | – | – | – | – | – | – | – | – | – | – | – | No bad smell | –
